Reference: US7611713B2 (priority 1999, dated 2009)
No end group written: not given here.

How the values were obtained:
B*3501 = B*3501 (Homo sapiens, UniProt P01889, A329T/A93T/A95T/C349S/D201E/D98Y/E176V/E187L/E204Q/E69T/I218V/K202T/L119I/Q94N/R155S/R180L/S121R/S35A/S48A/T118I/V127L/V306I/V36M/Y140S/Y91F); assay: HLA class I peptide binding assay, B*3501
B*5401 = B*5401 (Homo sapiens, UniProt P01889, A329T/C349S/D138N/D201E/E176V/E187T/E204Q/E69G/I76V/K202T/L119W/R155S/R180L/S121T/S35A/S48A/V127L/V306I/V36M/Y140L); assay: biochemical; assay type: binding
B*5301 = B*5301 (Homo sapiens, UniProt P01889, A329T/A93T/A95T/C349S/D201E/D98Y/E176V/E187L/E204Q/E69T/G107R/I218V/K202T/L105A/L119I/N104I/Q94N/R106L/R155S/R180L/S101N/S121R/S35A/S48A/T118I/V127L/V306I/V36M/Y140S/Y91F); assay: HLA class I peptide binding assay, B*5301
B*0702 = B*0702 (Homo sapiens, UniProt P01889); assay: biochemical; assay type: binding
T helper lymphocytes = conditions: individuals regardless of HLA type; cited from earlier work

Substance	IC50 (B*3501) [nM]	IC50 (B*5401) [nM]	IC50 (B*5301) [nM]	IC50 (B*0702) [nM]	stimulation of T helper lymphocyte response (T helper lymphocytes)
FPFCLAFSY [Peptide 2511]	6.5	5.1	4.8	–	–
FPIPSSWAF [Peptide 2506]	–	–	–	24	–
FPHCLAFSL [Peptide 2510]	–	–	15	74	–
FPHCLAFAL [Peptide 2509]	–	24	5	25	–
FPHCLAFSA [Peptide 2513]	6.5	0.6	137	3670	–
FPHCLAFSI [Peptide 2512]	–	1	3.8	675	–
aKXVWANTLKAAa	–	–	–	–	stimulate the response of T helper lymphocytes from most individuals
